For orientation: log P means the decadic logarithm of the partition coefficient of the neutral form, usually between octanol and water.

Test system in one data set: not listed separately
In words: log P by HPLC on reversed phase columns (Method L0; [a] acidic, [b] neutral range). As to conditions: HPLC on reversed phase columns (Method L0).
Procedure: Calibration was done with straight-chain alkan-2-ones (with 3 to 16 carbon atoms) with known log P values (measurement of log P values using retention times with linear interpolation between successive alkanones). Lambda-max-values were determined using UV-spectra from 200 nm to 400 nm and the peak values of the chromatographic signals.
In the case of `CC(C)Sc1nn2c(C(C)C)c(C(=O)N[C@H]3CCc4ccccc43)cnc2c1-c1cc(Cl)cc(Cl)c1` [Example 199], the “log P” value turned out to be 7.34.
For `COc1cccc(-c2c(C)nn3c(C(F)(F)F)c(C(=O)N[C@H]4CCc5ccccc54)cnc23)c1` [Examples 386], the “log P” value was determined as 4.34.

The data set is the same for the next values; noted with them: HPLC on reversed phase columns (Method L0); last column of Table 1, column head not shown.
`COc1c(C(=O)N[C@H]2CCOc3ccccc32)cnc2c(-c3cc(Cl)cc(Cl)c3)c(C)nn12` [Example 521]: the “log P” value is reported as 3.56.
Still for that read-out and setting: next, `COc1c(C(=O)N[C@H]2CCOc3ccccc32)cnc2c(-c3c(F)cccc3Cl)c(C)nn12` [Example 514]: 4.93; `Cc1nn2c(C(F)(F)F)c(C(=O)N[C@H]3CCc4ccccc43)cnc2c1-c1ccccc1Cl` [Example 412]: 4.43.
For `Cc1nn2c(C(C)C)c(C(=O)N[C@H]3CCc4ccccc43)cnc2c1-c1cnn(CCN2CCOCC2)c1` [Examples 397], the “log P” value is on record as 1.81.
Still for that read-out and setting: next, `COc1c(C(=O)N[C@H]2CCOc3ccccc32)cnc2c(-c3ccc(F)c(F)c3)c(C)nn12` [Example 519]: 2.88.

The data set is the same for the next values; noted with them: HPLC on reversed phase columns, Method L0, [a] acidic range.
`O=C(N[C@H]1CCc2ccccc21)c1cnc2c(-c3cc(Cl)cc(Cl)c3)c(Cl)nn2c1` [Example 67]: the “logP (Method L0) [a]” value was found to be 5.39.
In the case of `Cc1c(C(=O)N[C@H]2CCCc3ccccc32)cnc2c(-c3cccc(Cl)c3)c(Cl)nn12` [Example 58], the “logP (Method L0) [a]” value is 4.9.
As to `O=C(N[C@H]1CCc2ccccc21)c1cnc2c(-c3ccccc3Cl)c(C(F)(F)F)nn2c1` [Example 84], the “logP (Method L0) [a]” value is recorded as 4.15.

The target of the next data set is C. elegans Slo-1a (Caenorhabditis elegans, UniProt Q95V25). Kind of data set: In vitro assay 1: C. elegans Slo-1a, action at a recombinant C. elegans CHO cell line (membrane potential measurement). The conditions noted are these: CHO cells expressing C. elegans Slo-1a; voltage sensitive dye, FLIPR Tetra; negative decadic logarithm of EC50.
Chain of C. elegans Slo-1a (Q95V25 whole entry): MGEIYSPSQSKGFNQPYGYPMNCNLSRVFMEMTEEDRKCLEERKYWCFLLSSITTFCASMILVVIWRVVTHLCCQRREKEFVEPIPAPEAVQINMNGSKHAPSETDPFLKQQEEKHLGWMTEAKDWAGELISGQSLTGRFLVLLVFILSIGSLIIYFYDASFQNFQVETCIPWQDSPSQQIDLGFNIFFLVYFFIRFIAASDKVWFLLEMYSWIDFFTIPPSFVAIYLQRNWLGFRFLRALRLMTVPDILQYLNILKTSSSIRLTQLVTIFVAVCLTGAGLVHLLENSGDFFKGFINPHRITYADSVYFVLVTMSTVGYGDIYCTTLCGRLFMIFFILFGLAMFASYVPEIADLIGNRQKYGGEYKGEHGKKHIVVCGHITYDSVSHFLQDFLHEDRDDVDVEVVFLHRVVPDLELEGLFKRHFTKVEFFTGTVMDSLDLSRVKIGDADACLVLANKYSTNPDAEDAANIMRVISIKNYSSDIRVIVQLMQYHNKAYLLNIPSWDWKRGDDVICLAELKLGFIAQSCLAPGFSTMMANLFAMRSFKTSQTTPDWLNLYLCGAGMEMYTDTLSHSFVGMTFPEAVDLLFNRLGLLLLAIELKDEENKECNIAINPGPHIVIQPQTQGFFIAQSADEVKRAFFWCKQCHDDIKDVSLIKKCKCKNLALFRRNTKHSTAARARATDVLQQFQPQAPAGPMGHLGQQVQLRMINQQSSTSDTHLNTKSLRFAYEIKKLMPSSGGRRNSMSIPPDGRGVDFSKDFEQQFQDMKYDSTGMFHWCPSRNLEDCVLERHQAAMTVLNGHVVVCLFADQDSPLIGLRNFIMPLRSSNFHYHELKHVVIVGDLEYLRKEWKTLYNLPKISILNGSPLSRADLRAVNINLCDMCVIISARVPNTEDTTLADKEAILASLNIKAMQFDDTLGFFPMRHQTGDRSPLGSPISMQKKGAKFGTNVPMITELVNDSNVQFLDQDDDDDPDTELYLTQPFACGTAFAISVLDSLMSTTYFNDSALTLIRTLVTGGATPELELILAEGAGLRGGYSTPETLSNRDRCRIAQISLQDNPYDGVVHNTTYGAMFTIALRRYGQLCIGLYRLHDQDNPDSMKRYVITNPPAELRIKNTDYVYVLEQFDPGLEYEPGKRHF
As to `Cc1nn2c(C)c(C(=O)N[C@H]3CCc4ccccc43)cnc2c1-c1cccc(C(F)(F)F)c1` [Example 16], the pE50 was found to be 6.7.
On to `O=C(N[C@H]1CCOc2ccccc21)c1cnc2c(-c3ccc(F)c(F)c3F)c(C(F)F)nn2c1C1CC1` [Example 498], for which the pE50 is on record as 8.3.
On to `CC(C)c1c(C(=O)N[C@H]2CCc3ccccc32)cnc2c(-c3cccc(F)c3F)c(Cl)nn12` [Example 285], for which the pE50 is recorded as 8.
Turning to `CC(C)c1c(C(=O)N[C@H]2CCc3ccccc32)cnc2c(-c3cccc(C(F)(F)F)c3)cnn12` [Example 37], the pE50 was determined as 6.7.
As to `CC(C)c1c(C(=O)N[C@H]2CCOc3ccccc32)cnc2c(-c3ccc(Cl)cc3Cl)c(C(F)F)nn12` [Example 507], the pE50 was 8.1.
The same measure, in the same setting: to `O=C(N[C@H]1CCOc2ccccc21)c1cnc2c(-c3cc(Cl)ccc3Cl)c(C(F)F)nn2c1C1CC1` [Example 492] belongs 8.9; to `COCCOCCOCCN(C)c1c(C(=O)N[C@H]2CCOc3ccccc32)cnc2c(-c3cc(Cl)cc(Cl)c3)c(C)nn12` [Example 561], 8.2.
Still for that read-out and setting: next, `Cc1c(C(=O)N[C@H]2CCCc3ccccc32)cnc2c(-c3ccccc3Cl)cnn12` [Example 42]: 6.2; `CCc1c(C(=O)N[C@H]2CCOc3ccccc32)cnc2c(-c3cccc(F)c3F)c(C)nn12` [Example 477]: 8.2; `Cc1nn2c(N(C)C)c(C(=O)N[C@H]3CCOc4ccccc43)cnc2c1-c1c(F)ccc(F)c1F` [Example 554]: 8.7.
With `O=C(N[C@H]1CCOc2ccccc21)c1cnc2c(-c3cccc(F)c3F)c(C(F)F)nn2c1C1CC1` [Example 270], the pE50 came out at 8.4.
For `CCc1c(C(=O)N[C@H]2CCOc3ccccc32)cnc2c(-c3ccc(F)c(F)c3)c(C)nn12` [Example 487], the pE50 amounted to 7.7.
As to `CCc1c(C(=O)N[C@H]2CCOc3ccccc32)cnc2c(-c3cccc(Cl)c3)c(C)nn12` [Example 488], the pE50 is listed as 8.2.
Regarding `Cc1nn2c(C(C)C)c(C(=O)N[C@H]3CCc4ccccc43)cnc2c1-c1ccccc1Cl` [Example 20], the pE50 worked out at 7.9.
Turning to `CC(C)c1c(C(=O)N[C@H]2CCOc3ccccc32)cnc2c(-c3c(Cl)cccc3Cl)c(C(F)F)nn12` [Example 503], the pE50 stood at 7.9.
Same read-out and setting: to `Cc1nn2c(N3CCOCC3)c(C(=O)N[C@H]3CCOc4ccccc43)cnc2c1-c1ccc(F)c(N(C)C)c1F` [Example 543] belongs 8.6.
As for `O=C(N[C@H]1CCOc2ccccc21)c1cnc2c(-c3cccc(Cl)c3Cl)c(C(F)F)nn2c1C1CC1` [Example 512], the pE50 is recorded as 8.9.
Consider `Cc1nn2c(C)c(C(=O)N[C@H]3CCc4ccccc43)cnc2c1-c1ccccc1Cl` [Example 14], for which the pE50 is 7.7.
Same read-out and setting: next, `Cc1nn2c(N(C)C)c(C(=O)N[C@H]3CCOc4ccccc43)cnc2c1-c1cc(C(F)(F)F)ccc1F` [Example 547]: 8.9; `CCc1c(C(=O)N[C@H]2CCOc3ccccc32)cnc2c(-c3c(F)cccc3Cl)c(C)nn12` [Example 479]: 8.2; `CC(C)c1c(C(=O)N[C@H]2CCOc3ccccc32)cnc2c(-c3cc(Cl)ccc3Cl)c(C(F)F)nn12` [Example 494]: 8.5.
Regarding `Cc1nn2c(C)c(C(=O)N[C@H]3CCCc4ccccc43)cnc2c1-c1cccc(C(F)(F)F)c1` [Example 15], the pE50 is reported as 6.7.
Regarding `CC(C)c1c(C(=O)N[C@H]2CCc3ccccc32)cnc2c(-c3ccccc3Cl)cnn12` [Example 24], the pE50 was 7.2.
For the compound `O=C(N[C@H]1CCOc2ccccc21)c1cnc2c(-c3c(Cl)cccc3Cl)c(C(F)F)nn2c1C1CC1` [Example 271], the pE50 turned out to be 8.5.
Consider `Cc1nn2c(C(C)C)c(C(=O)N[C@H]3CCOc4ccccc43)cnc2c1-c1cccc2c1ccn2C` [Example 483], for which the pE50 worked out at 7.8.
Same read-out and setting: next, `CCc1c(C(=O)N[C@H]2CCOc3ccccc32)cnc2c(-c3c(Cl)cccc3Cl)c(C)nn12` [Example 491]: 8.3; `CC(C)c1c(C(=O)N[C@H]2CCOc3ccccc32)cnc2c(-c3ccc(F)c(F)c3)c(Cl)nn12` [Example 500]: 7.7.
Same read-out and setting: next, `Cc1nn2c(N3CCOCC3)c(C(=O)N[C@H]3CCOc4ccccc43)cnc2c1-c1c(F)ccc(Cl)c1F` [Example 545]: 8.8; `Cc1nn2c(C(C)C)c(C(=O)N[C@H]3CCc4ccccc43)cnc2c1-c1cc(Cl)cc(Cl)c1` [Example 8]: 7.5.
In the case of `Cc1nn2c(C3CC3)c(C(=O)N[C@H]3CCOc4ccccc43)cnc2c1-c1cc(C(F)(F)F)ccc1F` [Example 504], the pE50 is 8.9.
For `CC(C)c1c(C(=O)N[C@H]2CCOc3ccccc32)cnc2c(-c3c(F)cccc3Cl)c(C(F)F)nn12` [Example 506], the pE50 came to 8.1.
Take `Cc1nn2c(N(C)C3CC3)c(C(=O)N[C@H]3CCOc4ccccc43)cnc2c1-c1cc(Cl)cc(Cl)c1` [Example 555]: the pE50 was 7.6.
On the same count and under the same terms, next, `Cc1nn2c(N3CCOCC3)c(C(=O)N[C@H]3CCOc4ccccc43)cnc2c1-c1c(Cl)cccc1Cl` [Example 544]: 8.3; `CC(C)c1c(C(=O)N[C@H]2CCOc3ccccc32)cnc2c(-c3ccc(F)c(F)c3)c(C(F)F)nn12` [Example 278]: 7.5.
On to `O=C(N[C@H]1CCOc2ccccc21)c1cnc2c(-c3cccc(Cl)c3)c(C(F)F)nn2c1C1CC1` [Example 273], for which the pE50 is on record as 8.3.
In the case of `CCc1c(C(=O)N[C@H]2CCOc3ccccc32)cnc2c(-c3ccc(Cl)cc3Cl)c(C)nn12` [Example 485], the pE50 is listed as 8.2.
Regarding `CC(C)c1c(C(=O)N[C@H]2CCc3ccccc32)cnc2c(-c3cccc(Cl)c3)cnn12` [Example 40], the pE50 came to 6.5.

Source of the values: patent US11001590B2, “Pyrazolopyrimidine derivatives” (BAYER ANIMAL HEALTH GMBH, priority 2016, dated 2021).
